Like-named read-outs stand apart in the source and are kept apart here.
Tests used:
[1] = target: T1, 84V90M (Human immunodeficiency virus type 1 group M subtype B, UniProt P04585, I572V/L578M); experiment: cell-based; design: species or system HIV-1
[2] = test system: 30N82I88D; experiment: microbe, parasite or virus in culture; type: cell-based, HIV-1
[3] = test system: WT; experiment: microbe, parasite or virus in culture; type: cell-based, HIV-1
[4] = target: T1, 84V90M; experiment: biochemical; design: species or system HIV-1
[5] = test system: 48V54V82A; experiment: microbe, parasite or virus in culture; type: cell-based, HIV-1
[6] = target: recombinant HIV-1 protease (Human immunodeficiency virus type 1 group M subtype B, UniProt P04585); experiment: biochemical; type: biochemical; details: for Ki: read-out: Enzymatic assay Ki
[7] = test system: 46I50V; experiment: microbe, parasite or virus in culture; type: cell-based, HIV-1
[8] = target: T1, 84V90M; experiment: Enzymatic assay, IC50 against 84V90M mutant protease; type: biochemical, HIV-1
[9] = test system: 48V54V82A; design: species or system HIV-1; details: MT-4, 48V54V82A; read-out: Cell-based assay (MT-4) EC50/nM 48V54V82A
[10] = test system: 46I50V; design: species or system HIV-1; details: MT-4, 46I50V; read-out: Cell-based assay (MT-4) EC50/nM 46I50V
[11] = test system: WT HIV-1; experiment: microbe, parasite or virus in culture; type: cell-based
[12] = test system: 30N82I88D; design: species or system HIV-1; details: MT-4, 30N82I88D; read-out: Cell-based assay (MT-4) EC50/nM 30N82I88D
[13] = test system: mutant HIV-1 with I84V/L90M mutations in the protease gene; type: cell-based; details: MT-4, 84V90M; read-out: Cell-based assay (MT-4) EC50/nM 84V90M
[14] = test system: recombinant HIV-1 strains with resistance mutations in the protease gene; experiment: Cross-resistance profile assay, whole panel of mutant viruses; type: cell-based; details: {}
[15] = beagle, dog, in vivo, po
[16] = test system: 48V54V82S; design: species or system HIV-1; details: MT-4, 48V54V82S; read-out: Cell-based assay (MT-4) EC50/nM 48V54V82S
[17] = MT-4, 84V90M, read-out: Cell-based assay (MT-4) EC50 84V90M
[18] = MT-4, 30N82I88D, read-out: Cell-based assay (MT-4) EC50 30N82I88D
[19] = read-out: Cell-based assay (MT-4) EC50 WT
[20] = 84V90M enzyme, read-out: Enzymatic assay 84V90M IC50
[21] = MT-4, 48V54V82A, read-out: Cell-based assay (MT-4) EC50 48V54V82A
[22] = MT-4, 46I50V, read-out: Cell-based assay (MT-4) EC50 46I50V
[23] = Human immunodeficiency virus 1, read-out: Cell-based assay (MT-4) EC50 30N82I88D
[24] = Human immunodeficiency virus 1, read-out: Cell-based assay (MT-4) EC50 WT
[25] = Human immunodeficiency virus 1, read-out: Cell-based assay (MT-4) EC50 48V54V82A
[26] = Human immunodeficiency virus 1, read-out: Cell-based assay (MT-4) EC50 46I50V
[27] = MT-4, WT, read-out: Cell-based assay (MT-4) EC50/nM WT
[28] = read-out: Enzymatic assay WT IC50/nM
[29] = Human immunodeficiency virus 1, read-out: EC50 [nM] WT HIV-1

## CCOC(=O)C(C)OP(=O)(CCCNC(=O)c1cccc(CN2C(=O)N(Cc3ccc4[nH]nc(N)c4c3)[C@H](Cc3ccccc3)[C@H](O)[C@@H](O)[C@H]2Cc2ccccc2)c1)Oc1ccccc1 (stereo partly drawn)
[1]; [17]
  EC50: 1280 nM
[2]; [18]
  EC50: 678 nM
[3]; [19]
  EC50: 603 nM
[4]; [20]
  IC50: 6.4 nM
[5]; [21]
  EC50: 208 nM
[6]
  Ki: 0.112 nM
[6]; read-out: Enzymatic assay WT IC50
  IC50: 1.4 nM
[7]; [22]
  EC50: 209 nM

## Nc1cccc(CN2C(=O)N(Cc3cccc(C(=O)O)c3)C(Cc3ccccc3)C(O)C(O)C2Cc2ccccc2)c1 (stereo not drawn)
[1]
  EC50: > 6000 nM
[2]; [23]
  EC50: 3360 nM
[3]; [24]
  EC50: 2340 nM
[4]
  IC50: 299 nM

## CCOP(=O)(CCCNC(=O)c1cccc(CN2C(=O)N(Cc3cccc(N)c3)C(Cc3ccccc3)C(O)C(O)C2Cc2ccccc2)c1)OCC (stereo not drawn)
[1]
  EC50: 824 nM
[2]; [23]
  EC50: 171 nM
[3]; [24]
  EC50: 176 nM
[4]
  IC50: 29 nM
[5]; [25]
  EC50: 233 nM
[7]; [26]
  EC50: 195 nM

## Nc1n[nH]c2ccc(CN3C(=O)N(Cc4cccc(C(=O)O)c4)[C@H](Cc4ccccc4)[C@H](O)[C@@H](O)[C@H]3Cc3ccccc3)cc12
[1]; [17]
  EC50: > 6000 nM
[2]; [18]
  EC50: > 6000 nM
[4]; [20]
  IC50: 27 nM

## CCOP(=O)(CCCNC(=O)c1cccc(CN2C(=O)N(Cc3ccc4[nH]nc(N)c4c3)[C@H](Cc3ccccc3)[C@H](O)[C@@H](O)[C@H]2Cc2ccccc2)c1)OCC
[1]; [17]
  EC50: 476 nM
[2]; [18]
  EC50: 666 nM
[3]; [19]
  EC50: 188 nM
[5]; [21]
  EC50: 240 nM
[7]; [22]
  EC50: 319 nM

## O=C1N(Cc2ccccc2)[C@H](Cc2ccccc2)[C@H](O)[C@@H](O)[C@@H](Cc2ccccc2)N1Cc1ccc2[nH]nc(O)c2c1
[8]
  IC50: 85 nM
[9]
  EC50: 774 nM
[10]
  EC50: 937 nM
[11]; [27]
  EC50: 1230 nM
[12]
  EC50: 869 nM
[6]
  Ki: 0.42 nM
[6]; [28]
  IC50: 6.6 nM
[13]
  EC50: > 600 nM

## N#Cc1cc(CN2C(=O)N(Cc3cccc(OCc4ccccc4)c3)[C@H](Cc3ccccc3)[C@H](O)[C@@H](O)[C@H]2Cc2ccccc2)ccc1F
[8]
  IC50: 114 nM
[6]
  Ki: 1.43 nM
[6]; [28]
  IC50: 302 nM
[13]
  EC50: > 600 nM

## COc1ccc(CN2C(=O)N(Cc3ccc(O)cc3)[C@H](Cc3ccccc3)[C@H](O)[C@@H](O)[C@H]2Cc2ccccc2)cc1C#N
[8]
  IC50: 348 nM
[11]; [27]
  EC50: 2010 nM
[6]
  Ki: > 5 nM
[6]; [28]
  IC50: 130 nM
[13]
  EC50: 3120 nM

## O=C1N(Cc2ccccc2)[C@H](Cc2ccccc2)[C@H](O)[C@@H](O)[C@@H](Cc2ccc(OCP(=O)(OCc3ccccc3)OCc3ccccc3)cc2)N1Cc1ccccc1
[9]
  EC50: > 6000 nM
[11]; [27]
  EC50: 1770 nM
[12]
  EC50: 3140 nM
[13]
  EC50: > 6000 nM

## Nc1n[nH]c2ccc(CN3C(=O)N(Cc4cccc(OCP(=O)(OCc5ccccc5)OCc5ccccc5)c4)C(Cc4ccccc4)C(O)C(O)C3Cc3ccccc3)cc12 (stereo not drawn)
[1]
  EC50: > 6000 nM
[2]; [23]
  EC50: 705 nM
[3]; [24]
  EC50: 898 nM
[5]; [25]
  EC50: 2600 nM
[7]; [26]
  EC50: 3120 nM

## CCOP(=O)(COc1cccc(CN2C(=O)N(Cc3ccc4[nH]nc(N)c4c3)C(Cc3ccccc3)C(O)C(O)C2Cc2ccccc2)c1)OCC (stereo not drawn)
[1]
  EC50: 3010 nM
[2]; [23]
  EC50: 93 nM
[3]; [24]
  EC50: 665 nM
[5]; [25]
  EC50: 513 nM
[7]; [26]
  EC50: 857 nM

## CC(C)CN(C[C@@H](O)[C@H](Cc1ccccc1)NC(=O)O[C@H]1CCOC1)S(=O)(=O)c1ccc(N)cc1 [Amprenavir]
[14]
  Total No. of Resistant Viruses: 4
[15]
  AUC(2-24 hr) in PBMCs: 102,000 nM · hr
  t1/2: 1.7 h
  t1/2 (hr) in PBMCs: 1.7 h
[11]; [29]
  EC50: 20 nM

## Cc1c(O)cccc1C(=O)N[C@@H](CSc1ccccc1)[C@H](O)CN1C[C@H]2CCCC[C@H]2C[C@H]1C(=O)NC(C)(C)C [Nelfinavir]
[14]
  Total No. of Resistant Viruses: 9
[15]
  AUC(2-24 hr) in PBMCs: 33,000 nM · hr
  t1/2: 3.0 h
  t1/2 (hr) in PBMCs: 3.0 h
[11]; [29]
  EC50: 14 nM

## Nc1n[nH]c2ccc(CN3C(=O)N(CCCOCP(=O)(O)O)C(Cc4ccccc4)C(O)C(O)C3Cc3ccccc3)cc12 (stereo not drawn) [OCH2PO3H2]
[1]
  EC50: > 6000 nM
[3]; [24]
  EC50: 1070 nM
[4]
  IC50: 137 nM

## CCOP(=O)(COc1ccc(CC2C(O)C(O)C(Cc3ccc(O)cc3)N(Cc3ccc(O)cc3)C(=O)N2Cc2ccc(O)cc2)cc1)OCC (stereo not drawn) [OH, Ph-pOH, OCH2PO3Et2]
[2]; [18]
  EC50: 211 nM
[3]; [19]
  EC50: 285 nM
[5]; [21]
  EC50: 986 nM
[7]; [22]
  EC50: 1110 nM

## CCOC(=O)C(C)OP(=O)(COc1ccc(C[C@@H]2[C@H](O)[C@@H](O)[C@@H](Cc3ccccc3)N(Cc3ccccc3)C(=O)N2Cc2ccccc2)cc1)Oc1ccccc1 (stereo partly drawn) [R=H, R1=Ph, R2=Mono-lac-Et]
[8]
  IC50: 56 nM
[9]
  EC50: > 6000 nM
[11]; [27]
  EC50: 1730 nM
[12]
  EC50: 2790 nM
[6]
  Ki: 0.12 nM
[6]; [28]
  IC50: 6.6 nM
[13]
  EC50: > 6000 nM

## O=C1N(Cc2ccccc2)[C@H](Cc2ccccc2)[C@H](O)[C@@H](O)[C@@H](Cc2ccc(O)cc2)N1Cc1ccccc1 [R=H, R1=Ph, R2=OH]
[9]
  EC50: > 6000 nM
[11]; [27]
  EC50: 1260 nM
[12]
  EC50: 2950 nM
[13]
  EC50: > 6000 nM

## CCOP(=O)(COc1ccc(C[C@@H]2[C@H](O)[C@@H](O)[C@@H](Cc3ccccc3)N(Cc3cccc(N)c3)C(=O)N2Cc2cccc(N)c2)cc1)OCC [R=H, R1=Ph-mNH2, R2=OCh2PO3Et2]
[16]
  EC50: 146 nM
[9]
  EC50: 168 nM
[10]
  EC50: 46 nM
[11]; [27]
  EC50: 65 nM
[12]
  EC50: 16 nM
[13]
  EC50: 328 nM

## O=C1N(Cc2ccccc2)[C@H](Cc2ccccc2)[C@H](O)[C@@H](O)[C@@H](Cc2ccccc2)N1Cc1ccc2[nH]ncc2c1 [drawing 863, reference compound]
[1]
  EC50: 2310 nM
[4]; [20]
  IC50: 43.3 nM

## O=C1N(Cc2ccccc2)[C@H](Cc2ccccc2)[C@H](O)[C@@H](O)[C@@H](Cc2ccccc2)N1Cc1ccc2[nH]ncc2c1 [drawing 870]
[9]
  EC50: 705 nM
[10]
  EC50: 772 nM
[11]; [27]
  EC50: 193 nM
[12]
  EC50: 281 nM

## Nc1n[nH]c2ccc(CN3C(=O)N(Cc4cccc(OCc5ccccc5)c4)C(Cc4ccccc4)C(O)C(O)C3Cc3ccccc3)cc12 (stereo not drawn) [m-OBn]
[1]
  EC50: 2420 nM
[2]; [23]
  EC50: 82 nM
[3]; [24]
  EC50: 218 nM
[4]
  IC50: 27 nM
[5]; [25]
  EC50: 709 nM
[7]; [26]
  EC50: 601 nM

## Nc1n[nH]c2ccc(CN3C(=O)N(Cc4cccc(O)c4)C(Cc4ccccc4)C(O)C(O)C3Cc3ccccc3)cc12 (stereo not drawn) [m-OH]
[1]
  EC50: 475 nM
[2]; [23]
  EC50: 249 nM
[3]; [24]
  EC50: 151 nM
[5]; [25]
  EC50: 84 nM
[7]; [26]
  EC50: 104 nM

Source: US20060115815A1 (priority 2002, published 2006)
